Several values for one entry are separate records, joined by “and”; a condition that tells them apart may be missing. Equal values may be shown once. Read-outs that look alike come from different tables or passages of the source.
Test system: metastatic castration-resistant prostate cancer (mCRPC) with DNA-repair anomalies
Conditions: for CTC Response (CTC = 0 at week 8), % of subjects / CTC Response (CTC = 0 at week 8), number of subjects: ITT with baseline CTC >0 (N=131)
Experimental: The planned sample size was approximately 120 subjects with measurable disease who were biomarker-positive (approximately 75 subjects with DNA repair anomalies in BRCA [BRCA1 or BRCA2] and approximately 45 subjects with biallelic DNA-repair anomalies in non-BRCA [ATM, FANCA, PALB2, CHEK2, BRIP1, or HDAC2]).
Efficacy objectives were evaluated for subjects meeting the biomarker selection criteria described in the protocol. All subjects were monitored for safety during the study period, and up to 30 days after the last dose of study drug. Treatment continued until disease progression, unacceptable toxicity, death, or termination of the study by the sponsor.
Diagnosis and Main Criteria for Inclusion: The target population consisted of male subjects over the age of 18 years with mCRPC and DNA-repair anomalies (biallelic mutations and germline pathogenic mutations only for BRCA1 or BRCA2 mutations) who had received at least 1 prior taxane-based chemotherapy and at least 1 prior AR targeted therapy (second-generation or later). Subjects were asked to provide a tumor tissue sample (archival or recently collected, if available), and a blood sample for analysis of DNA-repair anomalies using a sponsor-validated assay.
Criteria for Evaluation: Efficacy assessments included chest, abdomen, and pelvis CT or MRI scans and whole-body bone scans (^99mTc) to evaluate objective response and disease progression.
The primary endpoint was ORR and summarized for the BRCA analysis set along with the 95% 2-sided exact CI. In addition, the counts and percentage of subjects in each response category (CR. PR, etc.) were tabulated. ORR in non-BRCA subjects was analyzed in the same way.
Descriptive summaries of CTC response were generated for BRCA and non-BRCA analysis sets, measurable and non-measurable subgroups and tabulated with its 2-sided 95% exact CI. Waterfall plots of percent change in CTC were also presented, showing the percentage change in CTC counts from baseline to 8 weeks, as well as maximal CTC count declines. All time to event secondary endpoints were evaluated using Kaplan-Meier method for BRCA and non-BRCA analysis sets. Median time to event and the corresponding 95% CI were provided. Descriptive summaries were provided for BRCA and non-BRCA analysis sets.
Time to degradation was determined using the following meaningful change threshold values: FACT-P Total (10-point reduction from baseline), EQ-5D-5L Index (0.09-point reduction from baseline). EQ-5D-5L VAS (10-point reduction from baseline), and BPI SF worst pain intensity item (30% reduction from baseline).
The primary endpoint was ORR, defined as the proportion of subjects with BRCA DNA-repair anomalies and measurable disease whose best response was either CR or PR as defined by RECIST 1.1 (Eisenhauer et al 2009) and who had no evidence of bone progression according to the PCWG3 criteria (Scher et al 2016).
ORR final analysis was performed approximately 6 months from Cycle 1 Day 1 of the last subject with a BRCA DNA-repair anomaly and measurable disease. Objective response as determined by investigator assessment was considered as the primary analysis.
Subjects who discontinued the study without a response assessment were considered as non-responders in the analysis. The objective response rate was calculated and its 2-sided 95% exact CI presented. In addition, the counts and percentage of subjects in each response category (CR, PR, etc.) were tabulated.
The following analyses of CTC response were performed for BRCA and non-BRCA analysis sets, measurable and non-measurable subgroups: • Descriptive summaries • CTC response rate was tabulated with its 2-sided 95% exact CI
All time to event secondary endpoints were evaluated using Kaplan-Meier method for BRCA and non-BRCA analysis sets. Median time to event and the corresponding 95% CI were provided. Descriptive summaries were provided for BRCA and non-BRCA analysis sets.

[1] = BRCA, ITT (N=142), Kaplan-Meier, 300 mg once daily
[2] = BRCA, 300 mg once daily, listed as niraparib
[3] = BRCA, measurable ITT (N=76), 300 mg once daily
[4] = BRCA, measurable ITT responders (N=26), 300 mg once daily
[5] = BRCA, measurable ITT responders (N=26), Kaplan-Meier, 300 mg once daily
[6] = BRCA, patients with baseline CTC ≥5 (n=117), 300 mg once daily
[7] = NON-BRCA, ITT (N=81), 300 mg once daily
[8] = NON-BRCA, measurable ITT responders (N=5), 300 mg once daily
[9] = NON-BRCA, measurable ITT responders (N=5), Kaplan-Meier, 300 mg once daily
[10] = Non-BRCA (n = 81), 300 mg once daily
[11] = Non-BRCA, patients with baseline CTC ≥5 (n=60), 300 mg once daily

NC(=O)c1cccc2cn(-c3ccc([C@@H]4CCCNC4)cc3)nc12 [Niraparib, 2-[4-[(3S)-piperidin-3-yl]phenyl]-2H-indazole-7-carboxamide]
Time to PSA progression: time to event, Median [1]: 5.13 months
Time to radiographic progression: time to event, 25th percentile [1]: 4.76 months
Time to radiographic progression: time to event, 75th percentile [1]: 11.63 months
Time to symptomatic skeletal event (SSE): time to event, Median [1]: 13.80 months
Time to symptomatic skeletal event: time to event, 25th percentile [1]: 7.52 months
rPFS: time to event, 25th percentile [1]: 4.44 months
rPFS: time to event, 75th percentile [1]: 11.56 months
CTC Response (CTC = 0 at week 8), % of subjects (BRCA, 300 mg once daily): (23.7%)
CTC Response (CTC = 0 at week 8), number of subjects (BRCA, 300 mg once daily): 31
CTC Response (CTC = 0 at week 8), % of subjects [2]: (23.7) %
CTC Response (CTC = 0 at week 8), number of subjects [2]: 31/131
DOR, median (range) (BRCA, as printed in Table 13, 300 mg once daily): 6.28 mo
Best Overall Response: Complete Response (CR), % of subjects [3]: 2.6%
Best Overall Response: Complete Response (CR), number of subjects [3]: 2
Best Overall Response: Not Available (NA), % of subjects [3]: 9.2%
Best Overall Response: Not Available (NA), number of subjects [3]: 7
Best Overall Response: Partial Response (PR), % of subjects [3]: 31.6%
Best Overall Response: Partial Response (PR), number of subjects [3]: 24
Best Overall Response: Progressive Disease (PD), % of subjects [3]: 21.1%
Best Overall Response: Progressive Disease (PD), number of subjects [3]: 16
Best Overall Response: Stable Disease (SD), % of subjects [3]: 35.5%
Best Overall Response: Stable Disease (SD), number of subjects [3]: 27
ORR (objective response rate, RECIST 1.1, no bone progression per PCWG3), % of subjects [3]: 34.2%
ORR (objective response rate, RECIST 1.1, no bone progression per PCWG3), number of subjects [3]: 26
Objective response confirmed: Complete Response (CR), % of subjects [3]: 2.6%
Objective response confirmed: Complete Response (CR), number of subjects [3]: 2
Objective response confirmed: Partial Response (PR), % of subjects [3]: 31.6%
Objective response confirmed: Partial Response (PR), number of subjects [3]: 24
Duration of objective response: 6-month event-free rate [4]: 0.464
Duration of objective response: 12-month event-free rate [4]: 0.000
Duration of objective response: 18-month event-free rate [4]: 0.000
Duration of objective response: 24-month event-free rate [4]: 0.000
Duration of objective response: Censored, % of subjects [4]: (23.1%)
Duration of objective response: Censored, number of subjects [4]: 6
Duration of objective response: Event, % of subjects [4]: (76.9%)
Duration of objective response: Event, number of subjects [4]: 20
Duration of objective response: time to event, 25th percentile [5]: 3.75 months
Duration of objective response: time to event, 75th percentile [5]: 7.20 months
Duration of objective response: time to event, Median [5]: 5.55 months
CTC conversion (CTC count ≥5/7.5 mL blood at baseline to <5/7.5 mL blood at nadir), % of subjects [6]: 47.0%
CTC conversion (CTC count ≥5/7.5 mL blood at baseline to <5/7.5 mL blood at nadir), number of subjects [6]: 55
Time to PSA progression: 12-month event-free rate [7]: 0.000
Time to PSA progression: 18-month event-free rate [7]: 0.000
Duration of objective response: 6-month event-free rate [8]: 0.500
Duration of objective response: 18-month event-free rate [8]: 0.000
Duration of objective response: 24-month event-free rate [8]: 0.000
Duration of objective response: Censored, % of subjects [8]: (20.0%)
Duration of objective response: Censored, number of subjects [8]: 1
Duration of objective response: Event, % of subjects [8]: (80.0%)
Duration of objective response: Event, number of subjects [8]: 4
Duration of objective response: time to event, 25th percentile [9]: 2.96 months
Duration of objective response: time to event, 75th percentile [9]: 6.95 months
Duration of objective response: time to event, Median [9]: 5.16 months
CRR (composite response rate), % of subjects [10]: 14.8%
CRR (composite response rate), number of subjects [10]: 12
PSA50 (≥50% decline in prostate-specific antigen), % of subjects [10]: 4.9%
PSA50 (≥50% decline in prostate-specific antigen), number of subjects [10]: 4
CTC conversion (CTC count ≥5/7.5 mL blood at baseline to <5/7.5 mL blood at nadir), % of subjects [11]: 15.0%
CTC conversion (CTC count ≥5/7.5 mL blood at baseline to <5/7.5 mL blood at nadir), number of subjects [11]: 9
Best Overall Response: Complete Response (CR), number of subjects (in vivo): 0
Best Overall Response: Not Available (NA), % of subjects (in vivo): (17.0%)
Best Overall Response: Not Available (NA), number of subjects (in vivo): 8
Best Overall Response: Partial Response (PR), % of subjects (in vivo): (10.6%)
Best Overall Response: Partial Response (PR), number of subjects (in vivo): 5
Best Overall Response: Progressive Disease (PD), % of subjects (in vivo): (31.9%)
Best Overall Response: Progressive Disease (PD), number of subjects (in vivo): 15
Best Overall Response: Stable Disease (SD), % of subjects (in vivo): (40.4%)
Best Overall Response: Stable Disease (SD), number of subjects (in vivo): 19
Duration of objective response: 12-month event-free rate (in vivo): 0.000
Objective response confirmed: Complete Response (CR), number of subjects (in vivo): 0
Objective response confirmed: Partial Response (PR), % of subjects (in vivo): 5 (10.6%)
Objective response confirmed: Partial Response (PR), number of subjects (in vivo): 5 (10.6%)
Overall survival: 6-month event-free rate (in vivo): 0.841 and 0.709 and 0.793
Overall survival: 12-month event-free rate (in vivo): 0.564 and 0.413 and 0.508
Overall survival: 18-month event-free rate (in vivo): 0.334 and 0.198 and 0.278
Overall survival: 24-month event-free rate (in vivo): 0.152 and 0.111 and 0.136
Overall survival: time to event, 25th percentile (in vivo): 8.31 months and 4.86 months and 7.16 months
Overall survival: time to event, 75th percentile (in vivo): 19.52 months and 16.53 months and 19.42 months
Time to PSA progression: 6-month event-free rate (in vivo): 0.144
Time to PSA progression: 24-month event-free rate (in vivo): 0.000
Time to PSA progression: Censored, % of subjects (in vivo): (51.9%)
Time to PSA progression: Censored, number of subjects (in vivo): 57 and 42
Time to PSA progression: Event, % of subjects (in vivo): (48.1%)
Time to PSA progression: time to event, 25th percentile (in vivo): 2.79 months
Time to PSA progression: time to event, 75th percentile (in vivo): 4.63 months and 8.31 months
Time to PSA progression: time to event, Median (in vivo): 3.65 months
Time to radiographic progression: 6-month event-free rate (in vivo): 0.299
Time to radiographic progression: Censored, % of subjects (in vivo): (34.6%)
Time to radiographic progression: Censored, number of subjects (in vivo): 28
Time to radiographic progression: Event, number of subjects (in vivo): 53
Time to radiographic progression: time to event, 25th percentile (in vivo): 1.87 months
Time to radiographic progression: time to event, 75th percentile (in vivo): 8.11 months
Time to symptomatic skeletal event (SSE): time to event, Median (in vivo): 10.35 months
Time to symptomatic skeletal event: 6-month event-free rate (in vivo): 0.792
Time to symptomatic skeletal event: 12-month event-free rate (in vivo): 0.379
Time to symptomatic skeletal event: 18-month event-free rate (in vivo): 0.190
Time to symptomatic skeletal event: Censored, % of subjects (in vivo): (76.5%)
Time to symptomatic skeletal event: Censored, number of subjects (in vivo): 62
Time to symptomatic skeletal event: time to event, 25th percentile (in vivo): 6.51 months
Time to symptomatic skeletal event: time to event, 75th percentile (in vivo): 15.54 months
rPFS: 6-month event-free rate (in vivo): 0.289
rPFS: Censored, % of subjects (in vivo): (29.6%)
rPFS: Censored, number of subjects (in vivo): 24
rPFS: Event, % of subjects (in vivo): (70.4%)
rPFS: Event, number of subjects (in vivo): 57
rPFS: time to event, 25th percentile (in vivo): 1.87 months
rPFS: time to event, 75th percentile (in vivo): 6.47 months
